Source: the RepoRT retention time repository (doi:10.1007/s11306-014-0727-x)

Assay: HILIC, Merck SeQuant ZIC-pHILIC, 100 × 2.1 mm, 5 µm, 25 °C; gradient (min/%B) 0/3 1/3 12/30 14.5/90 17/90 18.5/3 24/3
Conditions: stereoisomer not certain

SMILES	LC retention time [min]
O=C(O)CNCC(=O)O [Iminodiacetic acid]	13.7
CC(C)C[C@@H](N)C(=O)O [D-Leucine]	9.5
NCCCC(=O)O [Gamma-amino-n-butyric acid]	11.6
COc1ccc(Cc2cnc(N)nc2N)cc1OC [Diaveridine]	8.91
Nc1ncnc2c1ncn2C1CC(O)C(CO)O1 (centres undefined) [2'-Deoxyadenosine]	7.15
O=C(O)c1cccnc1 [Nicotinic acid]	2.35
NCCc1c[nH]c2ccccc12 [Tryptamine]	9.86
NCCC[C@H](N)C(=O)O [L-Ornithine]	15.9
c1c[nH]cn1 [Imidazole]	10.4
O=C(O)c1cc(=O)c2cccc(O)c2[nH]1 [4 8-Dihydroxyquinoline-2-carboxylic acid]	9.54
Nc1ccc(C(=O)NCC(=O)O)cc1 [p-aminohippuric acid]	5.67
C(=NC1CCCCC1)=NC1CCCCC1 [Dicyclohexylcarbodiimide-n n']	1.09
Cc1cn(C2CC(O)C(COP(=O)(O)O)O2)c(=O)[nH]c1=O (centres undefined) [Thymidine monophosphate]	11.9
Nc1nc2c(ncn2C2CC(O)C(CO)O2)c(=O)[nH]1 (centres undefined) [Deoxyguanosine]	9.48
Cc1c[nH]c(=O)[nH]c1=O [Thymine]	3.51
CC(N)(CO)CO [Amino-2-methylpropane-1 3-diol 2-]	12.7
NC(=O)CCC(N)C(=O)O [Glutamine L-]	12.9
OCCNCCO [Diethanolamine]	11.3
Nc1ccn(C2CC(O)C(CO)O2)c(=O)n1 (centres undefined) [Deoxycytidine]	10
CC1OC(OC2C(Oc3cc(O)c4c(c3)OC(c3ccc(O)cc3)CC4=O)OC(CO)C(O)C2O)C(O)C(O)C1O (centres undefined) [Naringin CHR]	7.51
O=P([O-])([O-])OCC(O)CO [L-Alpha-Glycerophosphate]	13.5
CN(C)c1ccc(C=CC=O)cc1 [4-(dimethyl amino) cinnamaldehyde]	1.17
O=c1[nH]cnc2nc[nH]c12 [Hypoxanthine]	7.88
NC(CCCC(N)C(=O)O)C(=O)O (racemic) [DL-2-6-Diaminopimelic acid]	14.8
O=c1c(O)c(-c2ccc(O)cc2O)oc2cc(O)cc(O)c12 [Morin]	6.55

SMILES	LC retention time [min]
CCNC(=O)CC[C@H](N)C(=O)O [L-Theanine]	10.6
O=c1[nH]cnc2c1ncn2C1OC(CO)C(O)C1O (centres undefined) [Inosine]	9.18
COC(C)C(N)C(=O)O (centres undefined) [O-methyl threonine]	10.4
NC(=O)C[C@H](N)C(=O)O [L-Asparagine]	13.2
O=C(CO)C(OC1OC(CO)C(O)C(O)C1O)C(O)C(O)CO (stereo not drawn) [D(+)turanose]	12.6
Nc1nc2nc[nH]c2c(=O)[nH]1 [Guanine]	9.81
N[C@@H](CCO)C(=O)O [L-Homoserine]	12.6
N[C@H](Cc1c[nH]c2ccccc12)C(=O)O [D-Tryptophan]	10.1
N[C@@H](CCCC(=O)O)C(=O)O [L-2-Aminoadipic acid]	12.4
CC(=O)OCC1OC(OC(C)=O)C(OC(C)=O)C(OC(C)=O)C1OC(C)=O (stereo not drawn) [Beta-Penta acetyl glucose]	1.06
CN1CC(=O)NC1=N [Creatinine]	9.87
Nc1ccccc1C(=O)CC(N)C(=O)O [D-kynurenine]	9.76
Cl.N[C@@H](CS)C(=O)O.O [L-cysteine hydrochloride hydrate]	11.9
NC(N)=NCC(=O)O [Glycocyamine]	12.8
Cc1cn(C2CC(O)C(CO)O2)c(=O)[nH]c1=O (centres undefined) [Thymidine]	4.41
Nc1nc2ncc(CNc3ccc(C(=O)NC(CCC(=O)O)C(=O)O)cc3)nc2c(=O)[nH]1 (centres undefined) [Folic Acid]	11.4
NC(CC(=O)O)C(=O)O (racemic) [DL-Aspartic acid]	13.6
O=C(O)c1ccc2ccccc2n1 [Quinaldic acid]	1.9
CC(O)C(=O)O (centres undefined) [Lactic acid]	7.45
O=C(O)[C@@H]1C[C@@H](O)CN1 [Trans-4-hydroxy-L-proline]	12.1
N[C@@H](Cc1ccc(O)cc1)C(=O)O [L-tyrosine]	11.2
NCc1ccccc1 [Benzylamine]	10.2
c1ccc(CNCc2ccccc2)cc1 [Dibenzylamine]	7.37
O=C(O)[C@@H]1CCCN1 [L-Proline]	10.4
